Patent publication US20100311714A1, “1H-IMIDAZO[4,5-c]QUINOLINONE COMPOUNDS” (priority 2009, published 2010)

System: PKB Ser473 phosphorylation in Rat1-myr-HA-p110 alpha cells
Test: Reverse protein array, PKB Ser473 phosphorylation in Rat1-myr-HA-p110 alpha cells
Format: cell-based
Settings: Rattus norvegicus, 0.5 h, 30 minutes compound incubation, read-out: p-PKB/IC50_alpha

| SMILES | IC50 [nM] |
| --- | --- |
| Cc1ncccc1-n1c(=O)n(C)c2cnc3ccc(-c4cnc5[nH]ccc5c4)cc3c21 [Example 2.8, 3-Methyl-1-(2-methyl-pyridin-3-yl)-8-(1H-pyrrolo[2,3-b]pyridin-5-yl)-1,3-dihydro-imidazo[4,5-c]quinolin-2-one] | 6.84 |
| COc1cc(-c2ccc3ncc4c(c3c2)n(-c2ccc(N)nc2C)c(=O)n4C)cnc1CO [Example 30.1, 1-(6-Amino-2-methyl-pyridin-3-yl)-8-(6-hydroxymethyl-5-methoxy-pyridin-3-yl)-3-methyl-1,3-dihydro-imidazo[4,5-c]quinolin-2-one] | 53.6 |
| COc1cc(-c2ccc3ncc4c(c3c2)n(-c2ccc(N3CC(F)(F)C3)nc2C)c(=O)n4C)cnc1CO [Example 24.4, 1-[6-(3,3-Difluoro-azetidin-1-yl)-2-methyl-pyridin-3-yl]-8-(6-hydroxymethyl-5-methoxy-pyridin-3-yl)-3-methyl-1,3-dihydro-imidazo[4,5-c]quinolin-2-one] | 22.3 |
| CNc1ncc(-c2ccc3ncc4c(c3c2)n(-c2ccc(N3CC[C@@H](O)C3)nc2C)c(=O)n4C)cn1 [Example 34.1, 1-[6-((R)-3-Hydroxy-pyrrolidin-1-yl)-2-methyl-pyridin-3-yl]-3-methyl-8-(2-methylamino-pyrimidin-5-yl)-1,3-dihydro-imidazo[4,5-c]quinolin-2-one] | 13 |
| CNc1ncc(-c2ccc3ncc4c(c3c2)n(-c2ccc(N3CC[C@H](O)C3)nc2C)c(=O)n4C)cc1Cl [Example 32.4, 8-(5-Chloro-6-methylamino-pyridin-3-yl)-1-[6-((S)-3-hydroxy-pyrrolidin-1-yl)-2-methyl-pyridin-3-yl]-3-methyl-1,3-dihydro-imidazo[4,5-c]quinolin-2-one] | 8 |
| CCNc1cc(-c2ccc3ncc4c(c3c2)n(-c2ccc(N3CCCC3)nc2C)c(=O)n4C)cnc1CO [Example 25.5, 8-(5-Ethylamino-6-hydroxymethyl-pyridin-3-yl)-3-methyl-1-(2-methyl-6-pyrrolidin-1-yl-pyridin-3-yl)-1,3-dihydro-imidazo[4,5-c]quinolin-2-one] | < 4.57 |
| COc1ccc(-n2c(=O)n(C)c3cnc4ccc(-c5cnc(CO)c(OC)c5)cc4c32)c(OC)n1 [Example 8.14, 1-(2,6-Dimethoxy-pyridin-3-yl)-8-(6-hydroxymethyl-5-methoxy-pyridin-3-yl)-3-methyl-1,3-dihydro-imidazo[4,5-c]quinolin-2-one] | 35 |
| Cc1nc(N2CCC(O)C2)ccc1-n1c(=O)n(C)c2cnc3ccc(-c4cncc(C(C)(C)O)c4)cc3c21 (stereo not shown) [Example 27.5, 8-[5-(1-Hydroxy-1-methyl-ethyl)-pyridin-3-yl]-1-[6-(3-hydroxy-pyrrolidin-1-yl)-2-methyl-pyridin-3-yl]-3-methyl-1,3-dihydro-imidazo[4,5-c]quinolin-2-one] | 160 |
| Cn1c(=O)n(-c2cccnc2F)c2c3cc(-c4cnc5[nH]ccc5c4)ccc3ncc21 [Example 6.3, 1-(2-Fluoro-pyridin-3-yl)-3-methyl-8-(1H-pyrrolo[2,3-b]pyridin-5-yl)-1,3-dihydro-imidazo[4,5-c]quinolin-2-one] | 13.7 |
| Cc1nc(N2CCC(O)C2)ccc1-n1c(=O)n(C)c2cnc3ccc(-c4cnc(N)c(C(F)(F)F)c4)cc3c21 (stereo not shown) [Example 27.3, 8-(6-Amino-5-trifluoromethyl-pyridin-3-yl)-1-[6-(3-hydroxy-pyrrolidin-1-yl)-2-methyl-pyridin-3-yl]-3-methyl-1,3-dihydro-imidazo[4,5-c]quinolin-2-one] | < 4.57 |
| COc1cc(-c2ccc3ncc4c(c3c2)n(-c2ccc(N3CC[C@H](O)C3)nc2C)c(=O)n4C)cnc1CO [Example 32.7, 8-(6-Hydroxymethyl-5-methoxy-pyridin-3-yl)-1-[6-((S)-3-hydroxy-pyrrolidin-1-yl)-2-methyl-pyridin-3-yl]-3-methyl-1,3-dihydro-imidazo[4,5-c]quinolin-2-one] | 61.7 |
| Cc1nc(F)ccc1-n1c(=O)n(C)c2cnc3ccc(-c4cncc(N5CCC5)c4)cc3c21 [Example 7.6, 8-(5-Azetidin-1-yl-pyridin-3-yl)-1-(6-fluoro-2-methyl-pyridin-3-yl)-3-methyl-1,3-dihydro-imidazo[4,5-c]quinolin-2-one] | 34.4 |
| CCNc1cc(-c2ccc3ncc4c(c3c2)n(-c2ccc(N(C)CCO)nc2C)c(=O)n4C)cnc1CO [Example 26.3, 8-(5-Ethylamino-6-hydroxymethyl-pyridin-3-yl)-1-{6-[(2-hydroxy-ethyl)-methyl-amino]-2-methyl-pyridin-3-yl}-3-methyl-1,3-dihydro-imidazo[4,5-c]quinolin-2-one] | < 4.57 |
| CCNc1cc(-c2ccc3ncc4c(c3c2)n(-c2ccc(N3CC(F)(F)C(F)(F)C3)nc2C)c(=O)n4C)cnc1CO [Example 35.2, 8-(5-Ethylamino-6-hydroxymethyl-pyridin-3-yl)-3-methyl-1-[2-methyl-6-(3,3,4,4-tetrafluoro-pyrrolidin-1-yl)-pyridin-3-yl]-1,3-dihydro-imidazo[4,5-c]quinolin-2-one] | 4.6 |
| COc1cc(-c2ccc3ncc4c(c3c2)n(-c2ccc(F)nc2C)c(=O)n4C)cnc1CO [Example 7.10, 1-(6-Fluoro-2-methyl-pyridin-3-yl)-8-(6-hydroxymethyl-5-methoxy-pyridin-3-yl)-3-methyl-1,3-dihydro-imidazo[4,5-c]quinolin-2-one] | 123 |
| COCc1ncc(-c2ccc3ncc4c(c3c2)n(-c2ccc(F)nc2C)c(=O)n4C)cc1OC [Example 7.7, 1-(6-Fluoro-2-methyl-pyridin-3-yl)-8-(5-methoxy-6-methoxymethyl-pyridin-3-yl)-3-methyl-1,3-dihydro-imidazo[4,5-c]quinolin-2-one] | 96.1 |
| COc1cc(-c2ccc3ncc4c(c3c2)n(-c2ccc(N3CCC(OC)C3)nc2C)c(=O)n4C)cnc1CO (stereo not shown) [Example 28.3, 8-(6-Hydroxymethyl-5-methoxy-pyridin-3-yl)-1-[6-(3-methoxy-pyrrolidin-1-yl)-2-methyl-pyridin-3-yl]-3-methyl-1,3-dihydro-imidazo[4,5-c]quinolin-2-one] | 44.5 |
| CNc1ncc(-c2ccc3ncc4c(c3c2)n(-c2ccc(N3CCC(OC)C3)nc2C)c(=O)n4C)cn1 (stereo not shown) [Example 28.2, 1-[6-(3-Methoxy-pyrrolidin-1-yl)-2-methyl-pyridin-3-yl]-3-methyl-8-(2-methylamino-pyrimidin-5-yl)-1,3-dihydro-imidazo[4,5-c]quinolin-2-one] | 9.1 |
| COc1ccc(-n2c(=O)n(C)c3cnc4ccc(-c5cncc(N6CCC6)c5)cc4c32)c(OC)n1 [Example 8.11, 8-(5-Azetidin-1-yl-pyridin-3-yl)-1-(2,6-dimethoxy-pyridin-3-yl)-3-methyl-1,3-dihydro-imidazo[4,5-c]quinolin-2-one] | < 4.57 |
| Cc1nc(N2CC(O)C2)ccc1-n1c(=O)n(C)c2cnc3ccc(-c4cncc(C(C)(C)O)c4)cc3c21 [Example 29.1, 1-[6-(3-Hydroxy-azetidin-1-yl)-2-methyl-pyridin-3-yl]-8-[5-(1-hydroxy-1-methyl-ethyl)-pyridin-3-yl]-3-methyl-1,3-dihydro-imidazo[4,5-c]quinolin-2-one] | 335 |
| CCOc1ccc(-c2ccc3ncc4c(c3c2)n(-c2ccc(N3CCC(O)C3)nc2C)c(=O)n4C)cn1 (stereo not shown) [Example 27.4, 8-(6-Ethoxy-pyridin-3-yl)-1-[6-(3-hydroxy-pyrrolidin-1-yl)-2-methyl-pyridin-3-yl]-3-methyl-1,3-dihydro-imidazo[4,5-c]quinolin-2-one] | < 4.57 |
| CNC(=O)c1ccc(-c2ccc3ncc4c(c3c2)n(-c2cccnc2C)c(=O)n4C)cc1 [Example 2.4, N-Methyl-4-[3-methyl-1-(2-methyl-pyridin-3-yl)-2-oxo-2,3-dihydro-1H-imidazo[4,5-c]quinolin-8-yl]-benzamide] | 14.6 |
| COc1ccc(-n2c(=O)n(C)c3cnc4ccc(-c5cnc(C(OC)OC)c(OC)c5)cc4c32)c(OC)n1 [Example 8.13, 8-(6-Dimethoxymethyl-5-methoxy-pyridin-3-yl)-1-(2,6-dimethoxy-pyridin-3-yl)-3-methyl-1,3-dihydro-imidazo[4,5-c]quinolin-2-one] | 208 |
| COc1cc(-c2ccc3ncc4c(c3c2)n(-c2ccc(N3CCCC3)nc2C)c(=O)n4C)cnc1CO [Example 25.4, 8-(6-Hydroxymethyl-5-methoxy-pyridin-3-yl)-3-methyl-1-(2-methyl-6-pyrrolidin-1-yl-pyridin-3-yl)-1,3-dihydro-imidazo[4,5-c]quinolin-2-one] | 27.5 |
| COCc1ncc(-c2ccc3ncc4c(c3c2)n(-c2cccnc2C)c(=O)n4C)cc1OC [Example 2.30, 8-(5-Methoxy-6-methoxymethyl-pyridin-3-yl)-3-methyl-1-(2-methyl-pyridin-3-yl)-1,3-dihydro-imidazo[4,5-c]quinolin-2-one] | 52.2 |
